The source of these data is ChEMBL document CHEMBL6153109, “Switching Roles─Exploring Concentration-Dependent Agonistic versus Antagonistic Behavior of Integrin Ligands” (J Med Chem, 2025).

Activity calls are given as the source filed them. No cut-off for these calls is given here.

For experiment [1], the system named is OV-MZ-6. The experiment in a line: Inhibition of cell migration in human OV-MZ-6 cells expressing integrin alpha5beta1 assessed as delay in wound gap closure at 1 to 1000 nM measured after 72 hrs by wound scratch assay. In kind it is functional, cell-based. The note with it: dose 1-1000 nM.
Experiment [2] has as its system M21. Description: Inhibition of cell migration in human M21 cells expressing integrin alphaVbeta3 assessed as delay in wound gap closure at 1 nM measured after 9 to 72 hrs by wound scratch assay. The class given is functional, cell-based. The note with it: time 9-72 hrs.
For experiment [3], the target named is T1, Integrin alpha-V/beta-3 (Homo sapiens, UniProt P05106+P06756). Description: Agonist activity at integrin alphaVbeta3 in human M21 cells assessed as fold increase in FAK expression at 1 uM incubated for 24 hrs by Western blot analysis. In kind it is cell-based. The note with it: filed as agonist. In general terms: A western blot detects proteins with antibodies after separation by electrophoresis.

In experiment [4] the target is T2, Integrin alpha-5/beta-1 (Homo sapiens, UniProt P05556+P08648). The experiment in a line: Agonist activity at integrin alpha5beta1 in human OV-MZ-6 cells assessed as fold increase in p-ERK1/2 expression at 1 uM incubated for 24 hrs by Western blot analysis. The class given is cell-based. The note with it: filed as agonist.
Experiment [5] deals with T1, Integrin alpha-V/beta-3. The experiment in a line: Agonist activity at integrin alphaVbeta3 in human M21 cells assessed as increase in p-FAK expression at 1 uM incubated for 24 hrs by Western blot analysis. The class given is cell-based.
The target of experiment [6] is T2, Integrin alpha-5/beta-1. The experiment in a line: Agonist activity at integrin alpha5beta1 in human OV-MZ-6 cells assessed as fold increase in FAK expression at 1 uM incubated for 24 hrs by Western blot analysis (reference value: 1). In kind it is cell-based. The following applies: filed as agonist.
The target of experiment [7] is T1, Integrin alpha-V/beta-3. The experiment in a line: Agonist activity at integrin alphaVbeta3 in human M21 cells assessed as increase in FAK expression at 1 nM incubated for 5 to 60 mins by Western blot analysis. The class given is cell-based. The following applies: filed as agonist, time 5-60 min.
Experiment [8] concerns the target T1, Integrin alpha-V/beta-3. The experiment in a line: Agonist activity at integrin alphaVbeta3 in human M21 cells assessed as increase in FAK expression at 1 uM incubated for 5 to 60 mins by Western blot analysis. The note with it: time 5-60 min. In kind it is cell-based.
Experiment [9] has as its target T1, Integrin alpha-V/beta-3. The experiment in a line: Agonist activity at integrin alphaVbeta3 in human M21 cells assessed as increase in p-FAK expression at 1 to 1000 nM incubated for 5 to 60 mins by Western blot analysis. The class given is cell-based. The following applies: dose 1-1000 nM, time 5-60 min.
The target of experiment [10] is T2, Integrin alpha-5/beta-1. The experiment in a line: Agonist activity at integrin alpha5beta1 in human OV-MZ-6 cells assessed as increase in FAK expression at 1 nM incubated for 5 to 60 mins by Western blot analysis. The class given is cell-based. The note with it: filed as agonist, time 5-60 min.
In experiment [11] the target is T2, Integrin alpha-5/beta-1. Description: Agonist activity at integrin alpha5beta1 in human OV-MZ-6 cells assessed as fold increase in p-FAK expression at 1 nM incubated for 5 mins by Western blot analysis (reference value: 1). In kind it is cell-based. The following applies: filed as agonist.
The target in experiment [12] is T2, Integrin alpha-5/beta-1. Description: Agonist activity at integrin alpha5beta1 in human OV-MZ-6 cells assessed as increase in p-FAK expression at 1 nM measured after 60 mins by Western blot analysis. The class given is cell-based.
The test system of experiment [13] is M21. Description: Inhibition of cell migration in human M21 cells expressing integrin alphaVbeta3 assessed as cell coverage at 1 uM measured within 72 hrs by wound scratch assay (reference value: 95 %). The class given is functional. Also noted: scale not given: the % may be the effect or the level left.
Experiment [14] relates to M21. Description: Inhibition of cell adhesion in human M21 cells expressing integrin alphaVbeta3 at 1 uM measured after 48 hrs by microscopic imaging analysis. The class given is functional, cell-based.
Experiment [15] concerns M21. The experiment in a line: Inhibition of cell adhesion in human M21 cells expressing integrin alphaVbeta3 at 1 nM measured after 48 hrs by microscopic imaging analysis. The class given is functional, cell-based.
For experiment [16], the target named is T1, Integrin alpha-V/beta-3. Description: Competitive binding affinity to human Integrin alphaVbeta3 incubated for 1 hrs in presence of vitronectin by ELISA based spectrophotometric analysis. In kind it is protein-complex assay.
The target of experiment [17] is T2, Integrin alpha-5/beta-1. The experiment in a line: Competitive binding affinity to human Integrin alpha5beta1 incubated for 1 hrs in presence of fibronectin by ELISA based spectrophotometric analysis. In kind it is protein-complex assay. For orientation: ELISA stands for enzyme-linked immunosorbent assay.
Experiment [18] has as its target T3, Integrin alpha-V/beta-6 (Homo sapiens, UniProt P06756+P18564). Description: Competitive binding affinity to human Integrin alphaVbeta6 incubated for 1 hrs in presence of […] of TGF-beta1 by ELISA based spectrophotometric analysis. The class given is protein-complex assay.
In experiment [19] the target is T2, Integrin alpha-5/beta-1. The experiment in a line: Agonist activity at integrin alpha5beta1 in human OV-MZ-6 cells assessed as increase in FAK expression at 1 uM incubated for 24 hrs by Western blot analysis. In kind it is cell-based.
The subject of experiment [20] is HN. Description: Effect on cell migration in human HN cells expressing alphaVbeta6 at 1 to 1000 nM measured after 48 hrs by microscopic imaging analysis. The following applies: dose 1-1000 nM. The class given is functional, cell-based.
The target of experiment [21] is T1, Integrin alpha-V/beta-3. Description: Agonist activity at integrin alphaVbeta3 in human M21 cells assessed as increase in FAK expression at 1 uM incubated for 24 hrs by Western blot analysis. In kind it is cell-based.
The target in experiment [22] is T1, Integrin alpha-V/beta-3. Description: Agonist activity at integrin alphaVbeta3 in human M21 cells assessed as increase in p-ERK1/2 expression at 1 uM incubated for 24 hrs by Western blot analysis. The class given is cell-based.
Experiment [23] addresses T1, Integrin alpha-V/beta-3. Description: Agonist activity at integrin alphaVbeta3 in human M21 cells assessed as increase in ERK1/2 expression at 1 uM incubated for 24 hrs by Western blot analysis. In kind it is cell-based.
The target in experiment [24] is T2, Integrin alpha-5/beta-1. The experiment in a line: Agonist activity at integrin alpha5beta1 in human OV-MZ-6 cells assessed as increase in p-FAK expression at 1 uM incubated for 24 hrs by Western blot analysis. The class given is cell-based.
Experiment [25] concerns the target T2, Integrin alpha-5/beta-1. The experiment in a line: Agonist activity at integrin alpha5beta1 in human OV-MZ-6 cells assessed as increase in ERK1/2 expression at 1 uM incubated for 24 hrs by Western blot analysis. The class given is cell-based.
For experiment [26], the target named is T2, Integrin alpha-5/beta-1. Description: Agonist activity at integrin alpha5beta1 in human OV-MZ-6 cells assessed as increase in p-ERK1/2 expression at 1 uM incubated for 24 hrs by Western blot analysis. The class given is cell-based.
For experiment [27], the target named is T3, Integrin alpha-V/beta-6. Description: Agonist activity at integrin alphaVbeta6 in human HN cells assessed as increase in FAK expression at 1 to 1000 nM measured within 60 mins by Western blot analysis. In kind it is cell-based. The note with it: filed as agonist, dose 1-1000 nM.
Experiment [28] deals with T2, Integrin alpha-5/beta-1. The experiment in a line: Agonist activity at integrin alpha5beta1 in human OV-MZ-6 cells assessed as increase in FAK expression at 1 to 1000 nM measured after 5 to 60 mins by Western blot analysis. In kind it is cell-based. The following applies: dose 1-1000 nM, time 5-60 min.
Experiment [29] deals with T3, Integrin alpha-V/beta-6. Description: Agonist activity at integrin alphaVbeta6 in human HN cells assessed as fold increase in p-FAK expression at 1 nM measured within 30 mins by Western blot analysis (reference value: 1). The class given is cell-based. The following applies: filed as agonist.
Experiment [30] addresses T3, Integrin alpha-V/beta-6. The experiment in a line: Agonist activity at integrin alphaVbeta6 in human HN cells assessed as fold increase in p-FAK expression at 1 uM measured within 30 mins by Western blot analysis (reference value: 1). In kind it is cell-based. The note with it: filed as agonist.
The target of experiment [31] is T2, Integrin alpha-5/beta-1. Description: Agonist activity at integrin alpha5beta1 in human OV-MZ-6 cells assessed as fold increase in p-FAK expression at 1 nM measured after 5 to 60 mins by Western blot analysis (reference value: 1). The note with it: filed as agonist, time 5-60 min. The class given is cell-based.
The subject of experiment [32] is HN. The experiment in a line: Effect on cell migration in human HN cells expressing integrin alphaVbeta6 at 1 to 1000 nM measured after 9 to 24 hrs by wound scratch assay. In kind it is functional, cell-based. The following applies: dose 1-1000 nM, time 9-24 hrs.
For experiment [33], the system named is OV-MZ-6. The experiment in a line: Inhibition of cell migration in human OV-MZ-6 cells expressing integrin alpha5beta1 assessed as delay in wound gap closure at 1 to 1000 nM measured immediately by wound scratch assay. The class given is functional, cell-based. The following applies: dose 1-1000 nM.

On to `C#CCCC(=O)NCCCOc1ccc(C(=O)N[C@H](CC(=O)O)Cc2ccc(OCCCNc3cc(OC)ccn3)cc2)cc1`, for which the inhibition result in the experiment on OV-MZ-6 [1] and in the experiment with M21 [14] was “Active” each time. In addition, the inhibition result in the experiment with M21 [2] and in the experiment with M21 [15] was “inactive” throughout. Moreover, the fold change (FC) on Integrin alpha-V/beta-3 [3] turned out to be 2; on Integrin alpha-5/beta-1 [4], 2.4; on Integrin alpha-5/beta-1 [6], 1.7; on Integrin alpha-5/beta-1 [11] it was 2. Moreover, the outcome at Integrin alpha-V/beta-3 [5], at Integrin alpha-V/beta-3 [8], on Integrin alpha-V/beta-3 [9] and on Integrin alpha-5/beta-1 [12] was inactive. In addition, at Integrin alpha-V/beta-3 [7], the result was Active. Moreover, the Activity entry was “Active; Slight Increase Observed” at Integrin alpha-5/beta-1 [10] and 80% with M21 [13].

By IC50 is commonly meant the point on the concentration scale where inhibition reaches its midpoint. Regarding `CC(C)C[C@H](NC(=O)[C@H](CO)NC(=O)[C@H](CC(=O)O)NC(=O)[C@H](CC(C)C)NC(=O)[C@H](CC(=O)O)NC(=O)[C@@H](NC(=O)[C@@H](N)CCCNC(=N)N)[C@@H](C)O)C(=O)N[C@@H](CCCNC(=N)N)C(=O)N[C@H](C(=O)O)[C@@H](C)O`, the figures for the IC50 on Integrin alpha-V/beta-3 [16], at Integrin alpha-5/beta-1 [17] and on Integrin alpha-V/beta-6 [18] were > 1000 nM, > 1000 nM and 29.5 nM, respectively.

As for `CC(C)C[C@@H]1NC(=O)[C@H](CC(=O)O)NC(=O)CNC(=O)[C@H](CCCNC(=N)N)NC(=O)[C@H](Cc2ccccc2)NC(=O)[C@H](CCCCN)N(C)C(=O)[C@H]2CCCN2C(=O)[C@H](Cc2ccccc2)NC(=O)[C@H](C)NC1=O`, in the experiment with OV-MZ-6 [1], the inhibition entry was “inactive”. Besides, the outcome at Integrin alpha-5/beta-1 [19], in the experiment on HN [20], on Integrin alpha-V/beta-3 [5], on Integrin alpha-V/beta-3 [21], at Integrin alpha-V/beta-3 [22] and at Integrin alpha-V/beta-3 [23] was inactive. The result at Integrin alpha-5/beta-1 [24], at Integrin alpha-5/beta-1 [25], at Integrin alpha-5/beta-1 [26], at Integrin alpha-5/beta-1 [28] and in the experiment on HN [32] was inactive. In addition, the half-inhibitory concentration (IC50) on Integrin alpha-V/beta-3 [16] is > 1000 nM; at Integrin alpha-V/beta-6 [18], 0.28 nM. For the same compound, on Integrin alpha-V/beta-6 [27], the Activity result is “Active; Slight Increase Observed”. Also, the fold change (FC) was 5 at Integrin alpha-V/beta-6 [29], 6 on Integrin alpha-V/beta-6 [30] and 2.9 at Integrin alpha-5/beta-1 [31]. Also, the inhibition entry in the experiment on OV-MZ-6 [33] is “Active”.
